Laboratory results as given in EP3807270B1, “NOVEL HETEROARYL HETEROCYCLYL COMPOUNDS FOR THE TREATMENT OF AUTOIMMUNE DISEASE” (F. Hoffmann-La Roche AG, priority 2018, dated 2019).

Biological target: T1, human TLR8 (Homo sapiens, UniProt Q9NR97)
T1 construct: host or cells: HEK293 (HEK-Blue)
T1 sequence (Q9NR97 27-1041): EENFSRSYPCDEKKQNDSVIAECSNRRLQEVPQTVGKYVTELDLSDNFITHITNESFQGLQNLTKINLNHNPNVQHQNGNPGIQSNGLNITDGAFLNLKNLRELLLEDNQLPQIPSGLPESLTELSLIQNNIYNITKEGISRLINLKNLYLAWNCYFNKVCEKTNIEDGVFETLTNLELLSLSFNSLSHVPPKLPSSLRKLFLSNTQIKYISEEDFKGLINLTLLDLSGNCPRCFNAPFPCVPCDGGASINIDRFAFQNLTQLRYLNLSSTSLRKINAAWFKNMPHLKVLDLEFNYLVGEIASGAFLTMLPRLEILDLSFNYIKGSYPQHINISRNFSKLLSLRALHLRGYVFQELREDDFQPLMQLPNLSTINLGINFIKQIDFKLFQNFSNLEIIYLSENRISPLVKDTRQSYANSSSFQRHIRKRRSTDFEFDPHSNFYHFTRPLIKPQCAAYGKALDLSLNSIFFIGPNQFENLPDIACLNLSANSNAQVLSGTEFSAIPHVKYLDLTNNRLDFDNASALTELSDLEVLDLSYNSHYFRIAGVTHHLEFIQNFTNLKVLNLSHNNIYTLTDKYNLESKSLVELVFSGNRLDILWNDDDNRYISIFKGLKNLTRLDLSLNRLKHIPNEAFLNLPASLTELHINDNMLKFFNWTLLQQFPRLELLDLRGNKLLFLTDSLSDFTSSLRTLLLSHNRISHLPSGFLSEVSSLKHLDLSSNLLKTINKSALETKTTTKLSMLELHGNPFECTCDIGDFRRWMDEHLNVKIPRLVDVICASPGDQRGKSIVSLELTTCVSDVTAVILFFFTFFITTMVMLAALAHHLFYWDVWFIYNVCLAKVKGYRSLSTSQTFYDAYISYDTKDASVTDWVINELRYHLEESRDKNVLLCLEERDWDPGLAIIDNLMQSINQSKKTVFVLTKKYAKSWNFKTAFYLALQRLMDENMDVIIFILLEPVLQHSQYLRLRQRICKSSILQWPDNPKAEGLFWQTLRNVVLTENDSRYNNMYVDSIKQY
Assay: HEK293-Blue-hTLR-8 cells assay (SEAP reporter, R848 stimulation)
Assay type: cell-based
Conditions: HEK293-Blue-hTLR8 cells, R848, 20 hrs; read-out: HEK/hTLR8 IC50
Excerpt: A stable HEK293-Blue-hTLR-8 cell line was purchased from InvivoGen (Cat.#: hkb-htlr8, San Diego, California, USA). These cells were originally designed for studying the stimulation of human TLR8 by monitoring the activation of NF-κB. A SEAP (secreted embryonic alkaline phosphatase) reporter gene was placed under the control of the IFN-β minimal promoter fused to five NF-κB and AP-1-binding sites. The SEAP was induced by activating NF-κB and AP-1 via stimulating HEK-Blue hTLR8 cells with TLR8 ligands. Therefore, the reporter expression was declined by TLR8 antagonist under the stimulation of a ligand, such as R848, for incubation of 20 hrs. The cell culture supernatant SEAP reporter activity was determined using QUANTI-Blue™ kit (Cat.#: rep-qb1, Invivogen, San Diego, Ca, USA) at a wavelength of 640 nm, a detection medium that turns purple or blue in the presence of alkaline phosphatase.
HEK293-Blue-hTLR8 cells were incubated at a density of 250,000-450,000 cells/mL in a volume of 170 µL in a 96-well plate in Dulbecco's Modified Eagle's medium (DMEM) containing 4.5 g/L glucose, 50 U/mL penicillin, […], […], 2 mM L-glutamine, 10% (v/v) heat-inactivated fetal bovine serum with addition of 20 µL test compound in a serial dilution in the presence of final DMSO at 1% and 10 µL of 60uM R848 in above DMEM, perform incubation under 37 °C in a CO2 incubator for 20 hrs. Then 20 µL of the supernatant from each well was incubated with 180 µL Quanti-blue substrate solution at 37°C for 2 hrs and the absorbance was read at 620-655 nm using a spectrophotometer. The signaling pathway that TLR8 activation leads to downstream NF-κB activation has been widely accepted, and therefore similar reporter assay was modified for evaluating TLR8 antagonist.

Compared with C[C@@H]1CN(c2ccc(C#N)c3ncccc23)C[C@H](CN2CCN(c3ncc4c(n3)CNC4)CC2)O1 [Example 11, 5-[(2S,6R)-2-[[4-(6,7-dihydro-5Hpyrrolo[3,4-d]pyrimidin-2-yl)piperazin-1-yl]methyl]-6-methyl-morpholin-4-yl]quinoline-8-carbonitrile], C[C@@H]1CN(c2ccc(C#N)c3ncccc23)C[C@H](CN2CCN(c3ncc4c(n3)CNCC4)CC2)O1 [Example 12, 5-[(2R,6S)-2-methyl-6-[[4-(5,6,7,8-tetrahydropyrido[3,4-d]pyrimidin-2-yl)piperazin-1-yl]methyl]morpholin-4-yl]quinoline-8-carbonitrile] is 1.6-fold lower in IC50: 8 nM for the first, 5 nM for the second. The second is the more potent here.

First: C[C@@H]1CN(c2ccc(C#N)c3ncccc23)C[C@H](CN2CCN(c3ccc4c(c3)CNC4)C(CO)C2)O1 (stereo partly drawn) [Example 13, 5-[(2S,6R)-2-[[3-(hydroxymethyl)-4-isoindolin-5-yl-piperazin-1-yl]methyl]-6-methyl-morpholin-4-yl]quinoline-8-carbonitrile]
Second: C[C@@H]1CN(c2ccc(C#N)c3ncccc23)C[C@H](CN2CCN(c3ccc4c(c3)CNC4)CC2CO)O1 (stereo partly drawn) [Example 15, 5-[(2S,6R)-2-[[2-(hydroxymethyl)-4-isoindolin-5-yl-piperazin-1-yl]methyl]-6-methyl-morpholin-4-yl]quinoline-8-carbonitrile]
The IC50 of the first is 2-fold higher: 22 nM for the first, 11 nM for the second. The second is the more potent here.

First: C[C@@H]1CN(c2ccc(C#N)c3ncccc23)C[C@H](CN2CCN(c3ccc4c(n3)CCNC4)CC2)O1 [Example 14, 5-[(2R,6S)-2-methyl-6-[[4-(5,6,7,8-tetrahydro-1,6-naphthyridin-2-yl)piperazin-1-yl]methyl]morpholin-4-yl]quinoline-8-carbonitrile]
Second: C[C@@H]1CN(c2ccc(C#N)c3ncccc23)C[C@H](CN2CCN(c3ccc4c(n3)CNC4)CC2)O1 [Example 30, 5-[(2S,6R)-2-[[4-(6,7-dihydro-5H-pyrrolo[3,4-b]pyridin-2-yl)piperazin-1-yl]methyl]-6-methyl-morpholin-4-yl] quinoline-8-carbonitrile]
The IC50 of the first is 1.8-fold lower: 4 nM for the first, 7 nM for the second.

Going from C[C@@H]1CN(c2ccc(C#N)c3ncccc23)C[C@H](CN2CCN(c3ccc4c(c3)CN(CCO)C4)CC2)O1 [Example 16, 5-[(2S,6R)-2-[[4-[2-(2-hydroxyethyl)isoindolin-5-yl]piperazin-1-yl]methyl]-6-methyl-morpholin-4-yl]quinoline-8-carbonitrile] to C[C@@H]1CN(c2ccc(C#N)c3ncccc23)C[C@H](CN2CCN(c3ccc4c(c3)CCNC4CO)CC2)O1 (stereo partly drawn) [Example 24, 5-[(2S,6R)-2-[[4-[1-(hydroxymethyl)-1,2,3,4-tetrahydroisoquinolin-6-yl]piperazin-1-yl]methyl]-6-methyl-morpholin-4-yl]quinoline-8-carbonitrile], the IC50 rises from 10 nM to 22 nM (2.2-fold). The first is the more potent here.

Compared with C[C@@H]1CN(c2ccc(C#N)c3ncccc23)C[C@H](CN2CCN(c3cnc4c(n3)CCNC4)CC2)O1 [Example 17, 5-[(2R,6S)-2-methyl-6-[[4-(5,6,7,8-tetrahydropyrido[3,4-b]pyrazin-2-yl)piperazin-1-yl]methyl]morpholin-4-yl]quinoline-8-carbonitrile], C[C@@H]1CN(c2ccc(C#N)c3ncccc23)C[C@H](CN2CCN(c3ncc4c(n3)CCNC4)CC2)O1 [Example 29, 5-[(2R,6S)-2-methyl-6-[[4-(5,6,7,8-tetrahydropyrido[4,3-d]pyrimidin-2-yl)piperazin-1-yl]methyl]morpholin-4-yl]quinoline-8-carbonitrile] is lower in IC50: 4 nM for the first, < 3 nM for the second.

Compared with C[C@@H]1CN(c2ccc(C#N)c3ncccc23)C[C@H](CN2CCN(c3cc4c(cn3)CNC4)CC2)O1 [Example 18, 5-[(2S,6R)-2-[[4-(2,3-dihydro-1H-pyrrolo[3,4-c]pyridin-6-yl)piperazin-1-yl]methyl]-6-methyl-morpholin-4-yl] quinoline-8-carbonitrile], C[C@@H]1CN(c2ccc(C#N)c3ncccc23)C[C@H](CN2CCN(c3cc4c(cn3)CNCC4)CC2)O1 [Example 19, 5-[(2R,6S)-2-methyl-6-[[4-(5,6,7,8-tetrahydro-2,7-naphthyridin-3-yl)piperazin-1-yl]methyl]morpholin-4-yl]quinoline-8-carbonitrile] is 2.2-fold lower in IC50: 9 nM for the first, 4 nM for the second. The second is the more potent here.

Going from C[C@@H]1CN(c2ccc(C#N)c3ncccc23)C[C@H](CN2CCN(c3cc4c(cn3)CCNC4)CC2)O1 [Example 20, 5-[(2R,6S)-2-methyl-6-[[4-(5,6,7,8-tetrahydro-2,6-naphthyridin-3-yl)piperazin-1-yl]methyl]morpholin-4-yl]quinoline-8-carbonitrile] to C[C@@H]1CN(c2ccc(C#N)c3ncccc23)C[C@H](CN2CCN(c3cnc4c(c3)CNCC4)CC2)O1 [Example 21, 5-[(2R,6S)-2-methyl-6-[[4-(5,6,7,8-tetrahydro-1,6-naphthyridin-3-yl)piperazin-1-yl]methyl]morpholin-4-yl]quinoline-8-carbonitrile], the IC50 rises from 6 nM to 9 nM (1.5-fold).

C[C@@H]1CN(c2ccc(C#N)c3ncccc23)C[C@H](CN2CCN(c3ccc4c(c3)C(O)CNC4)CC2)O1 (stereo partly drawn) [Example 22, 5-[(2S,6R)-2-[[4-(4-hydroxy-1,2,3,4-tetrahydroisoquinolin-6-yl)piperazin-1-yl]methyl]-6-methyl-morpholin-4-yl]quinoline-8-carbonitrile] and CC1NCc2cc(N3CCN(C[C@H]4CN(c5ccc(C#N)c6ncccc56)C[C@@H](C)O4)CC3)ccc21 (stereo partly drawn) [Example 28, 5-[(2R,6S)-2-methyl-6-[[4-(1-methylisoindolin-5-yl)piperazin-1-yl]methyl]morpholin-4-yl]quinoline-8-carbonitrile] are within 1.5-fold of each other in IC50: 19 nM for the first, 13 nM for the second.

Compared with C[C@@H]1CN(c2ccc(C#N)c3ncccc23)C[C@H](CN2CCN(c3cnc4c(c3)CCNC4)CC2)O1 [Example 23, 5-[(2R,6S)-2-methyl-6-[[4-(5,6,7,8-tetrahydro-1,7-naphthyridin-3-yl)piperazin-1-yl]methyl]morpholin-4-yl]quinoline-8-carbonitrile], C[C@@H]1CN(c2ccc(C#N)c3ncccc23)C[C@H](CN2CCN(c3nc4c(s3)CNCC4)CC2)O1 [Example 31, 5-[(2R,6S)-2-methyl-6-[[4-(4,5,6,7-tetrahydrothiazolo[5,4-c]pyridin-2-yl)piperazin-1-yl]methyl]morpholin-4-yl]quinoline-8-carbonitrile] is lower in IC50: 11 nM for the first, < 3 nM for the second.

First: C[C@@H]1CN(c2ccc(C#N)c3nccnc23)C[C@H](CN2CCN(c3cnc4c(c3)CNC4)CC2)O1 [Example 25, 8-[(2S,6R)-2-[[4-(6,7-dihydro-5H-pyrrolo[3,4-b]pyridin-3-yl)piperazin-1-yl]methyl]-6-methyl-morpholin-4-yl] quinoxaline-5-carbonitrile]
Second: C[C@@H]1CN(c2ccc(C#N)n3ncc(F)c23)C[C@H](CN2CCN(c3cnc4c(c3)CNC4)CC2)O1 [Example 26, 4-[(2S,6R)-2-[[4-(6,7-dihydro-5H-pyrrolo[3,4-b]pyridin-3-yl)piperazin-1-yl]methyl]-6-methyl-morpholin-4-yl]-3-fluoro-pyrazolo[1,5-a]pyridine-7-carbonitrile]
The IC50 of the first is 2.9-fold lower: 17 nM for the first, 49 nM for the second.

In the case of C[C@@H]1CN(c2ccc(C#N)c3ncccc23)C[C@H](CN2CCC(Nc3ncc4c(n3)CNC4)C2)O1 (stereo partly drawn) [Example 32, 5-[(2S,6R)-2-[[3-(6,7-dihydro-5H-pyrrolo[3,4-d]pyrimidin-2-ylamino)pyrrolidin-1-yl]methyl]-6-methyl-morpholin-4-yl]quinoline-8-carbonitrile], the IC50 is reported as 107 nM.
